Read-outs that look alike come from different tables or passages of the source.

This is an account of results in patent US20020037327A1, “Treatment for cancer and compounds for use therein” (priority 1997, published 2002).

The nature of data set [1]: Water solubility of the prepared compound. Format: physicochemical. Here is the method:
Bismuth iodiscorbate was prepared by dissolving 58 g of concentrated hydriodic acid (56.1 weight-percent) into 350 mls of water. Next, 5 g of 0.0085 molar bismuth (III) iodide was crushed in a mortar, and then dissolved in the solution. Next, 2.3 g of 0.0085 molar strontium hydroxide octahydrate was stirred into the solution, followed by the addition of 4.5 g of 0.026 molar L-ascorbic acid. The mixture was stirred for three hours, then stripped to dryness on a rotary evaporator. The residue then was redissolved in 500 ml water and filtered, and again stripped on a rotary evaporator. This process assisted in the removal of excess hydriodic acid. The residue again was dissolved in 500 ml of water, filtered, and stripped to dryness on a rotary evaporator. An orange solid then was removed from the flask and bottled. This procedure yielded 9.1 g of what is designated as SrBiI2[ascorbate]3. This compound was water soluble.
Potassium iodiscorbate was prepared by adding 6.5 g of 0.12 molar potassium hydroxide and 16.0 g of 0.06 molar strontium hydroxide octahydrate to 500 ml water in a 1000-ml beaker, resulting in a white, cloudy solution. The mixture was stirred for about 2 hours. Next, 13.0 g of 0.06 molar hydriodic acid (56 weight-percent) was added, and the mixture was stirred for three hours. Next, […] of 0.18 molar L-ascorbic acid was added, turning the mixture clear in about 5 minutes. The mixture then was stirred for another 0.5 hour. The water was removed under vacuo, and the residue dried under vacuum for about 8 hours. The solids were removed from the flask and bottles. The structure is designated as [ascorbate]2SrK[ascorbate]KI. This compound also was water soluble.
Zinc iodiscorbate was prepared by adding 4.0 g of 0.05 molar zinc oxide and 13.3 g of 0.05 molar strontium hydroxide octahydrate to 500 ml of distilled water, resulting in a white suspension. The mixture then was treated with 11.2 g of 0.05 molar concentrated hydriodic acid and stirred for two hours. A white suspension still remained. […]

Data set [2] relates to MCF-7 breast carcinoma cells. Put plainly: In vitro percent cell survival, crystal violet assay, breast carcinoma cells. Format: cell-based, human. Conditions: 48 hours. How it is done:
(§1) Three compounds of the present invention, specifically, bismuth iodiscorbate, potassium iodiscorbate, and zinc iodiscorbate, were tested in vitro on both tumorous and normal human cells. Three cell lines were obtained through the American Type Culture Collection (Rockville, Maryland). The first cell line, designated HUV-EC-C, consisted of human umbilical cord vein normal endothelial cells. These noncancerous cells were used as a control. The second cell line, MCF-7, consisted of breast carcinoma cells. The third cell line, ME-180, consisted of uterine cervix carcinoma cells.
(§2) The data shown in FIGS. 5-7 were derived by the following steps. HUV-EC-C was cultured in a solution of 90% F12 medium (GIBCO-BRL, Grand Island, N.Y.) and 10% fetal bovine serum (Hyclone, Logan, Utah) with 100 μg/ml heparin and 30 μg/ml ECGF (endothelial cell growth factor; Sigma Chemical Co., St. Louis, Mo.). MCF-7 and ME-180 were grown in a solution of 90% minimal essential medium (GIBCO-BRL) and 10% fetal bovine serum (Hyclone). The cells were grown to approximately 90% confluence in T25 cell culture flasks (Falcon-Becton Dickinson Labware, Franklin Lakes, N.J.) in a 37° C. humidified incubator in the presence of 5% C02−95% air.
(§3) Flasks were removed from the incubator and placed in a sterile laminar flow hood. All cell manipulation procedures were performed in this sterile hood. The flasks were rinsed in 5 ml of sterile phosphate-buffered saline (PBS; Sigma) and the monolayer of cells was released from the flask by adding 5 ml of 1X trypsin-EDTA (Sigma) in PBS. The flask was capped and placed back in the incubator for 10 minutes. The flasks were removed from the incubator, and cells plus trypsin-EDTA solution were transferred to a 15 ml centrifuge tube (Falcon) and 5 ml of cell growth medium was added. The tubes were centrifuged at 500 g for 10 minutes at room temperature. The tubes then were placed back in the hood and supernatant (top liquid) was removed with a sterile pipette (Falcon). […] The cell density in the hemacytometer was determined by counting cells visible by microscopy. […]

Data set [3] deals with ME-180 uterine cervix carcinoma cells. The data set can be described thus: In vitro percent cell survival, crystal violet assay, uterine cervix carcinoma cells. Format: cell-based, human. As to conditions: 48 hours; for survival of human cervical carcinoma cells (ME-180): concentration not given. How it is done: as §1, §2, §3
Data set [4] deals with HUV-EC-C human umbilical cord vein normal endothelial cells. The data set can be described thus: In vitro percent cell survival, crystal violet assay, normal endothelial cells (control). Format: cell-based. As to conditions: 48 hours. Here is the method:
as §1, §2
Flasks were removed from the incubator and placed in a sterile laminar flow hood. […] The cell density in the hemacytometer was determined by counting cells visible by microscopy. […]

The test system of data set [5] is cells at high density (near confluence in culture dishes). The data set can be described thus: Treatment of cells at high density (near confluence). Format: cell-based, human. Conditions: 400 μg/ml. From the text: FIG. 5 depicts percent cell survival against various concentrations of potassium iodiscorbate.
Another data set relates to mice. Put plainly: In vivo toxicology study in mice. How it is done:
A toxicology study also was performed. Specifically, the toxicology of potassium iodiscorbate was evaluated through in vivo tests on mice. Potassium iodiscorbate was prepared as a stock solution of 175 mg/ml in saline and administered to mice. Injections consisted of a volume not exceeding 0.1 ml administered through the tail vein (intravenously), or a volume not exceeding 0.2 ml (by an intraperitoneal route). Doses up to 1000 mg/kg (intraperitoneal injection) and 500 mg/kg (intravenous injection) caused no apparent toxicity. This dose should permit use of the compounds of the present invention in concentrations (refer to FIGS. 5-7) that approximate those necessary for selective inhibition of malignant cell growth.

Consider Zinc iodiscorbate, for which the solubility in water entry in data set [1] (product as prepared) is listed as “water soluble”. Besides, in data set [2] (about 80-100 μg/ml), the “survival of breast carcinoma cells (MCF-7) with respect to normal cell growth” value is on record as “reduced dramatically”. Further, the “survival of cervical carcinoma cells (ME-180) with respect to normal cell growth” value in data set [3] (about 80-100 μg/ml) is “reduced dramatically”. Further, the “normal cell growth (HUV-EC-C)” value in data set [4] (about 80-100 μg/ml) is given as “without serious reduction of normal cell growth”.

Consider Potassium iodiscorbate, for which, in data set [1] (product as prepared), the solubility in water result is “water soluble”. Further, the “survival of breast carcinoma cells (MCF-7)” value in data set [2] (concentrations greater than 100 μg/ml) was “reducing dramatically the survival”. The “survival of human cervical carcinoma cells (ME-180)” value in data set [3] is on record as “reduced dramatically the survival”. Besides, the “growth of normal human endothelial cells (HUV-EC-C)” value in data set [4] (any concentration tested) is recorded as “did not affect the growth”. For the same substance, the “effect on cells at high density” value in data set [5] is recorded as “little effect”. Also, the “doses that caused no apparent toxicity” value in the data set on mice (intraperitoneal injection) was “up to 1000 mg/kg”; in the data set with mice (intravenous injection (tail vein)), no more than 500 mg/kg.

Regarding Bismuth iodiscorbate, the solubility in water entry in data set [1] is “water soluble”. Besides, the “survival of human breast cancer cells (MCF-7)” value in data set [2] (concentration not given) was “effective in reducing the survival”. In data set [3], the “survival of human cervical carcinoma cells (ME-180)” value is given as “effective in reducing the survival”.
